Among the data in patent US5972975A, “Substituted 2-aminopyridines as inhibitors of nitric oxide synthase” (priority 1997, dated 1999) are IC50 values, retold here.

Counter-ions that a name gives are not always drawn. Like-named read-outs stand apart in the source and are kept apart here.

One experiment concerns the target ncNOS (Homo sapiens, UniProt P29475). Kind of experiment: biochemical.
Another experiment has as its target iNOS (Homo sapiens, UniProt P35228). Kind of experiment: NOS activity: L-[3H]citrulline formation from L-[3H]arginine, iNOS. Format: biochemical. The protocol:
(§1) NOS activity is measured as the formation of L-[2,3,4,5-^3 H]Citrullinefrom L-[2,3,4,5-^3 H]Arginine. The incubation buffer (100 μL) contained; 100 mM TES, pH 7.5, 5 μM FAD, 5 μM FMN, 10 μM BH4, 0.5 mM NADPH, 0.5 mM DTT, 0.5 mg/mL BSA, 2 mM CaCl2, 10 μg/mL calmodulin (bovine), 1 μM L-Arg, 0.2 μCi L-[2,3,4,5-^3 H]Arg, and the inhibitor in aqueous DMSO (max. 5%). The reaction is initiated by addition of enzyme. Incubations are performed at room temperature for 30 minutes and stopped by the addition of an equal volume of quenching buffer consisting of 200 mM sodium citrate, pH 2.2, 0.02% sodium azide. Reaction products are separated by passing through a cation exchange resin and quantitated as cpm by scintillation counting.

The target in the next experiment is ecNOS (Homo sapiens, UniProt P29474). Kind of experiment: NOS activity: L-[3H]citrulline formation from L-[3H]arginine, ecNOS. Format: biochemical. The protocol: as §1
Setting [1] is: Table 2, ncNOS, 1 μM L-Arg, pH 7.5, room temperature, 30 minutes, read-out: ncNOS (IC50).
Setting [2] is: Table 2, iNOS, 1 μM L-Arg, pH 7.5, room temperature, 30 minutes, read-out: iNOS (IC50).
The mark [3] stands for this setting: Table 2, ecNOS, 1 μM L-Arg, pH 7.5, room temperature, 30 minutes, read-out: ecNOS (IC50).
[4] abbreviates: Table 1, ncNOS, 1 μM L-Arg, pH 7.5, room temperature, 30 minutes, read-out: ncNOS (IC50).
Where [5] appears, read: Table 1, iNOS, 1 μM L-Arg, pH 7.5, room temperature, 30 minutes, read-out: iNOS (IC50).
The mark [6] stands for this setting: Table 1, ecNOS, 1 μM L-Arg, pH 7.5, room temperature, 30 minutes, read-out: ecNOS (IC50).

Sequence of ncNOS (P29475 whole entry): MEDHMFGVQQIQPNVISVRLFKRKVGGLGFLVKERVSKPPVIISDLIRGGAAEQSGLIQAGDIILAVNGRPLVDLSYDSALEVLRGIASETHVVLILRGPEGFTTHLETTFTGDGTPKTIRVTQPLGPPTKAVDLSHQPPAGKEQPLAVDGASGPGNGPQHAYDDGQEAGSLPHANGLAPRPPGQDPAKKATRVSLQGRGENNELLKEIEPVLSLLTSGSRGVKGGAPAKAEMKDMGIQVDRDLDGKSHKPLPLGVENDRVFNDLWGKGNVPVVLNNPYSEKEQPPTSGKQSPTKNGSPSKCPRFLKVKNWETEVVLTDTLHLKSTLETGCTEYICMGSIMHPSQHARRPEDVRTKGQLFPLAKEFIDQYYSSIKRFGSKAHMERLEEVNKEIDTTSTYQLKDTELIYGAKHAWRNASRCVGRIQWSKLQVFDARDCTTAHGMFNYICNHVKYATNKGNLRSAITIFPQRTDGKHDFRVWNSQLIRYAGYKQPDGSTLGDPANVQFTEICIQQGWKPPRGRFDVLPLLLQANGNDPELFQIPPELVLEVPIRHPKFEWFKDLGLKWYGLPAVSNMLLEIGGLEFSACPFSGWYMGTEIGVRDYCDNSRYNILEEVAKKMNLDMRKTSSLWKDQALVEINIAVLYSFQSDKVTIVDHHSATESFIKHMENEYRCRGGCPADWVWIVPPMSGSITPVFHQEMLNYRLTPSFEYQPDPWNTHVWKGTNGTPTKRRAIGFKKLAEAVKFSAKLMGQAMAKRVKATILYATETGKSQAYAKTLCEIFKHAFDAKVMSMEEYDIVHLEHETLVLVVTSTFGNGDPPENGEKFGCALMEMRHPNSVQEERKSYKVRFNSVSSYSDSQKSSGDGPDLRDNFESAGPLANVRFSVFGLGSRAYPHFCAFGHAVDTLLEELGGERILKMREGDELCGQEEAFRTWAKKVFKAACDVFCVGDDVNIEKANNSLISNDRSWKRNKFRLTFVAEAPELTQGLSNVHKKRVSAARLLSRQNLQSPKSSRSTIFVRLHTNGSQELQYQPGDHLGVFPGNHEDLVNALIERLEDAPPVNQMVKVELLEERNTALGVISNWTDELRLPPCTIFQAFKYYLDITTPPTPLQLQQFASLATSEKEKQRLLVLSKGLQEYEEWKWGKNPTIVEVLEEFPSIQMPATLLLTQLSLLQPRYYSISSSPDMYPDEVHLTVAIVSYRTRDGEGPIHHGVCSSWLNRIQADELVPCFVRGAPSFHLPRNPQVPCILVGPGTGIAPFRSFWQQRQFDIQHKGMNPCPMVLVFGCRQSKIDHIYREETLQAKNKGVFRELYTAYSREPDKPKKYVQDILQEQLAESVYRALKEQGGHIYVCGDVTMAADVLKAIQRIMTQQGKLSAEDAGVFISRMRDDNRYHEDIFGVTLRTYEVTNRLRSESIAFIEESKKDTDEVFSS

The term IC50 denotes the concentration at which inhibition is half-maximal. For the compound `C=CCCc1cc(C)cc(N)n1` [Example 53, 2-Amino-6-(3-buten-1-yl)-4-methylpyridine], the half-maximal inhibitory concentration (IC50) on ncNOS (setting [1]), at iNOS (setting [2]) and on ecNOS (setting [3]) was less than 1 µM throughout.

Regarding `Nc1nccc2c1CCCC2` [Example 65, 1-Amino-5,6,7,8-tetrahydroisoquinoline], the IC50 at ncNOS (setting [1]), on iNOS (setting [2]) and on ecNOS (setting [3]) was less than 50 µM in each case.

Regarding `Cc1cc(N)nc(CCCCC(=O)O)c1` [Example 74, 5-(6-Amino-4-methyl-2-pyridinyl)pentanoic acid hydrochloride], the IC50 at ncNOS (setting [1]) is less than 10 µM; at iNOS (setting [2]), less than 10 µM; on ecNOS (setting [3]) it was less than 1 µM.

Regarding `Cc1cc(N)nc(CCN)c1` [Example 67, 2-Amino-6-(2-aminoethyl)-4-methylpyridine], the half-maximal inhibitory concentration (IC50) was less than 1 µM at ncNOS (setting [1]), less than 1 µM on iNOS (setting [2]) and less than 50 µM at ecNOS (setting [3]).

In the case of `Cc1cc(N)nc(CCCC(=O)O)c1` [Example 75, 4-(6-Amino-4-methyl-2-pyridinyl)butanoic acid hydrochloride], the IC50 is less than 10 µM on ncNOS (setting [1]), less than 10 µM at iNOS (setting [2]) and less than 1 µM at ecNOS (setting [3]).

On to `Cc1cnc(N)c(C)c1` [Example 50, 2-Amino-3,5-dimethylpyridine], for which the figures for the half-inhibitory concentration (IC50) at ncNOS (setting [1]), at iNOS (setting [2]) and at ecNOS (setting [3]) were less than 10 µM, less than 50 µM and less than 10 µM, respectively.

Take `CSCc1ccnc(N)c1` [Example 22, 2-Amino-4-methylthiomethylpyridine]: the IC50 at ncNOS (setting [1]) was more than 50 µM; on iNOS (setting [2]), less than 50 µM; on ecNOS (setting [3]), more than 50 µM.

As for `CCCCCc1cnc(N)cc1C` [Example 33, 2-Amino-4-methyl-5-pentyl-pyridine], the IC50 was less than 10 µM at ncNOS (setting [1]), less than 50 µM on iNOS (setting [2]) and more than 50 µM at ecNOS (setting [3]).

`Cc1cc(N)nc(CCCN)c1` [Example 66, 2-Amino-6-(3-aminopropyl)-4-methylpyridine]: the IC50 is less than 1 µM on ncNOS (setting [1]), less than 1 µM on iNOS (setting [2]) and less than 10 µM on ecNOS (setting [3]).

As for `Cc1cc(N)nc(CCC(N)C(=O)O)c1` (stereo not drawn) [Example 59, α-(2-(6-Amino-4-methylpyrid-2-yl)ethyl)glycine dihydrochloride], the IC50 at ncNOS (setting [1]), at iNOS (setting [2]) and at ecNOS (setting [3]) was less than 1 µM in each case.

Take `CCc1cc(C)cc(N)n1` [Example 54, 2-Amino-6-ethyl-4-methylpyridine]: the IC50 at ncNOS (setting [1]), at iNOS (setting [2]) and at ecNOS (setting [3]) was less than 1 µM each time.

With `Cc1ccc(N)nc1C` [Example 51, 2-Amino-5,6-dimethylpyridine], the concentration for half-maximal inhibition (IC50) on ncNOS (setting [1]), on iNOS (setting [2]) and on ecNOS (setting [3]) was less than 10 µM throughout.

As to `CC(=O)NCc1cnc(N)cc1C` [Example 46, 2-Amino-5-acetamidomethyl-4-methylpyridine], the values for the IC50 on ncNOS (setting [1]), on iNOS (setting [2]) and on ecNOS (setting [3]) were more than 50 µM, less than 10 µM and more than 50 µM, respectively.

On to `Cc1cc(N)ncc1N` [Example 30, 2.5-Diamino-4-picoline], for which the IC50 against ncNOS was less than 50 µM; against iNOS, less than 10 µM; at ecNOS, less than 50 µM.

As for `Nc1ncccc1O` [Example 9], the IC50 is more than 50 µM at ncNOS (setting [4]), 47.5 µM at iNOS (setting [5]) and more than 50 µM on ecNOS (setting [6]).

For the compound `CC(=O)NCCCCc1cc(C)cc(N)n1` [Example 57, 6-(4-Acetamidobutyl)-2-amino-4-methylpyridine], the concentration for half-maximal inhibition (IC50) on ncNOS (setting [1]) is less than 1 µM; at iNOS (setting [2]), less than 10 µM; on ecNOS (setting [3]) it was less than 10 µM.

On to `C#Cc1cnc(N)cc1C` [Example 32, 2-Amino-5-ethynyl-4-methyl-pyridine], for which the results for the IC50 on ncNOS (setting [1]), at iNOS (setting [2]) and on ecNOS (setting [3]) were less than 50 µM, less than 10 µM and less than 50 µM, respectively.

Regarding `COc1ccnc(N)c1` [Example 34, 4-Methoxy-2-aminopyridine], the IC50 on ncNOS (setting [1]), at iNOS (setting [2]) and at ecNOS (setting [3]) was less than 10 µM throughout.

`CSc1c(C)ccnc1N` [Example 21, 2-Amino-3-methylthio-4-picoline]: the values for the IC50 at ncNOS (setting [1]), on iNOS (setting [2]) and on ecNOS (setting [3]) were less than 10 µM, less than 50 µM and less than 50 µM, respectively.

Take `Cc1cc(N)ncc1C(=O)O` [Example 43, 2-Amino-5-carboxy-4-methylpyridine]: the IC50 on ncNOS (setting [1]), at iNOS (setting [2]) and on ecNOS (setting [3]) was more than 50 µM each time.

With `CSc1ccnc(N)c1` [Example 35, 4-Methylthio-2-aminopyridine], the results for the IC50 at ncNOS (setting [1]), at iNOS (setting [2]) and at ecNOS (setting [3]) were less than 10 µM, less than 50 µM and less than 50 µM, respectively.

On to `Cc1cc(N)nc(C(C)C)c1` [Example 55, 2-Amino-4-methyl-6-(1-methylethyl)pyridine], for which the IC50 at ncNOS (setting [1]) is less than 10 µM; on iNOS (setting [2]), less than 1 µM; on ecNOS (setting [3]), less than 1 µM.

With `Cc1cc(N)ncc1Br` [Example 41, 2-Amino-5-bromo-4-methylpyridine], the IC50 on ncNOS (setting [1]), on iNOS (setting [2]) and on ecNOS (setting [3]) was less than 10 µM throughout.

In the case of `Nc1cc(Cl)ccn1` [Example 15, 2-Amino-4-chloropyridine], the IC50 was less than 10 µM at ncNOS (setting [4]), less than 1 µM at iNOS (setting [5]) and less than 10 µM on ecNOS (setting [6]).
